{
  "source": "patent US12661369B2",
  "about": "“Muscular atrophy inhibitor and method for inhibiting muscular atrophy” (YAMASA CORPORATION, priority 2020, dated 2026)",
  "format_in_all_cases": "cell-based, Mouse",
  "key": {"[1]": {"tested_on": "C2C12 cells differentiated into myotube cells", "test": "Dexamethasone-induced myotube atrophy in C2C12 cells, myotube cell diameter (Example 1-2, also used for Examples 2 and 3)", "method": "(§1) Mouse myoblast cell line C2C12 cells (RIKEN BRC, RCB0987) were suspended in growth medium (Dulbecco's modified Eagle's Medium supplemented with 10% FBS, 100 units/ml of penicillin, 100 μg/ml of streptomycin), seeded in 24-well plates, and incubated in a 37° C., 5% CO2 incubator until the cell density reached 70-90%.\nThe growth medium was removed, and exchanged to a differentiation induction medium (Dulbecco's modified Eagle's Medium supplemented with 2% adult bovine serum, 100 units/ml of penicillin, 100 μg/ml of streptomycin). The cells were cultured for 4 days while exchanging the medium once every 2 days and differentiated into myotube cells. The medium was removed and exchanged to the following media: • (1) Differentiation induction medium containing no dexamethasone [Dex (−)]; • (2) Differentiation induction medium containing 100 μM dexamethasone [Dex (+)]; • (3) Differentiation induction medium containing 100 μM dexamethasone and a certain amount of disodium cytidylate [Dex (+), a certain amount of CMP]; • (4) Differentiation induction medium containing 100 μM dexamethasone and a certain amount of cytidine [Dex (+), a certain amount of cytidine (which may be abbreviated as “Cyd”)]; • (5) Differentiation induction medium containing 100 μM dexamethasone and a certain amount of disodium uridylate [Dex (+), certain amount of UMP]; and • (6) Differentiation induction medium containing 100 μM dexamethasone and a certain amount of uridine [Dex (+), certain amount of uridine].\nAfter culturing the cells for 3 days, five positions near the center of the wells were photographed at magnifications of 100. Using ImageJ image analysis software, the diameters of 10 myotube cells per a photograph were measured in the order from the myotube cell having the largest diameter, and an average of 50 cells was determined to be the diameter of the myotube cell in each well. Statistical analysis was performed by t-test or Dunnett's multiple comparison test using the differentiation induction medium treatment group supplemented only with 100 μM dexamethasone as a control. The threshold for statistical significance was set to 5%.\nCytidylic acid and uridylic were added to the medium at the concentrations shown in FIG. 7 so that the total concentration of cytidylic acid and uridylic acid was 1000 μM.\nIn Example 2, the total concentration of cytidylic acid/uridylic acid added to the medium was adjusted to 1000 μM and a ratio of the cytidylic acid/uridylic acid was varied.\nSimilarly, the effect of the combination of cytidine and uridine were also evaluated."}, "Atrogin-1": {"tested_on": "Atrogin-1", "test": "Atrogin-1 mRNA expression in dexamethasone-treated C2C12 myotube cells (Example 4)", "conditions": "48 hours pretreatment, then 1 μM dexamethasone plus test substance 24 hours, corrected by β-actin", "method": "(§2) Mouse myoblast cell line C2C12 cells were suspended in growth medium, seeded in 24-well plates, and incubated in a 37° C., 5% C02 incubator until the cell density reached 70-90%. The growth medium was removed, and exchanged to a differentiation induction medium. The cells were cultured for 6 days while exchanging the medium once every 2 days and differentiated into myotube cells. The medium was removed and exchanged to a differentiation induction medium or a differentiation induction medium containing a test substance. After 48 hours, the medium was removed and replaced with a differentiation induction medium, a differentiation induction medium supplemented only with 1 μM dexamethasone, or a medium supplemented with 1 μM dexamethasone and test substances (a certain amount of UMP (disodium uridylate), a certain amount of Urd (uridine), and […]).\n(§3) After 24 hours, the medium was removed and total RNA was extracted from the cells using RNeasy Mini kit (QIAGEN) or NucleoSpin RNA (Takara Bio).\n(§4) Using the total RNA as a template, a reverse transcription reaction solution was prepared using the ReverTra Ace(R) qPCR RT Kit (Toyobo). […] Analysis was performed by relative quantification, and mRNA expression levels were corrected using the β-actin mRNA expression level as an endogenous control. […]"}, "MuRF1": {"tested_on": "MuRF1", "test": "MuRF1 mRNA expression in dexamethasone-treated C2C12 myotube cells (Example 4)", "conditions": "48 hours pretreatment, then 1 μM dexamethasone plus test substance 24 hours, corrected by β-actin", "method": "as §2, §3, §4"}, "[2]": {"tested_on": "C2C12 cells differentiated into myotube cells", "test": "Dexamethasone-induced myotube atrophy in C2C12 cells, myotube cell diameter (Example 1-1)", "conditions": "100 μM dexamethasone plus 2 mM or 5 mM disodium uridylate, 48 hours, vs Dex (+), UMP (−)", "method": "as §1, with “C02” for “CO2”\nThe growth medium was removed, and exchanged to a differentiation induction medium (Dulbecco's modified Eagle's Medium supplemented with 2% adult bovine serum, 100 units/ml of penicillin, 100 μg/ml of streptomycin). The cells were cultured for 4 days while exchanging the medium once every 2 days and differentiated into myotube cells. […]\nAfter 24 hours, the medium was changed again. […] Using ImageJ image analysis software, the diameters of 10 myotube cells per a photograph were measured in the order from the myotube cell having the largest diameter, and an average of 50 cells was determined to be the diameter of the myotube cell in each well. […]"}, "[3]": {"conditions": "Example 1-2, 100 μM dexamethasone plus a certain amount of test substance, 3 days, vs Dex (+) only"}, "[4]": {"conditions": "Example 3, 100 μM dexamethasone plus single test substance"}},
  "note": "Entries after “also recorded” stand apart in the source; their conditions may differ.",
  "data": [
    {"smiles": "Nc1ccn([C@@H]2O[C@H](CO)[C@@H](O)[C@H]2O)c(=O)n1", "note": "[cytidine]", "values": [
      {"measurement": "myotube cell diameter", "setting": "[1]; [3]", "result": "significantly increased; also recorded: myotube cell atrophy inhibiting effect"},
      {"measurement": "myotube cell diameter", "setting": "[1]; [4]", "result": "significantly increased"}
    ]},
    {"smiles": "Nc1ccn([C@@H]2O[C@H](COP(=O)(O)O)[C@@H](O)[C@H]2O)c(=O)n1", "note": "[cytidylic acid]", "values": [
      {"measurement": "myotube cell diameter", "setting": "[1]; [3]", "result": "significantly increased; also recorded: myotube cell atrophy inhibiting effect"},
      {"measurement": "myotube cell diameter", "setting": "[1]; [4]", "result": "significantly increased"}
    ]},
    {"smiles": "O=c1ccn([C@@H]2O[C@H](CO)[C@@H](O)[C@H]2O)c(=O)[nH]1", "note": "[uridine]", "values": [
      {"measurement": "myotube cell diameter", "setting": "[1]; [3]", "result": "significantly increased; also recorded: myotube cell atrophy inhibiting effect"},
      {"measurement": "myotube cell diameter", "setting": "[1]; [4]", "result": "significantly increased"},
      {"measurement": "mRNA expression level of Atrogin-1", "setting": "Atrogin-1", "result": "decreased; also recorded: excellent inhibiting effect"},
      {"measurement": "mRNA expression level of MuRF1", "setting": "MuRF1", "result": "decreased; also recorded: excellent inhibiting effect"}
    ]},
    {"smiles": "O=c1ccn([C@@H]2O[C@H](COP(=O)(O)O)[C@@H](O)[C@H]2O)c(=O)[nH]1", "note": "[uridylic acid]", "values": [
      {"measurement": "myotube cell diameter", "setting": "[2]", "result": "the reduction was suppressed"},
      {"measurement": "myotube cell diameter", "setting": "[1]; [3]", "result": "significantly increased; also recorded: myotube cell atrophy inhibiting effect"},
      {"measurement": "myotube cell diameter", "setting": "[1]; [4]", "result": "significantly increased"},
      {"measurement": "mRNA expression level of Atrogin-1", "setting": "Atrogin-1", "result": "decreased; also recorded: excellent inhibiting effect"},
      {"measurement": "mRNA expression level of MuRF1", "setting": "MuRF1", "result": "decreased; also recorded: excellent inhibiting effect"}
    ]}
  ]
}
